From patent US12157741B2, “Macrocyclic inhibitors of DYRK1A” (DANA-FARBER CANCER INSTITUTE, INC., priority 2018, dated 2024)
Read-outs that look alike come from different tables or passages of the source.

Tests used:
various enzymes [1] = biological target: various enzymes (Homo sapiens, UniProt P08581, M1250T)
Procedure: (§1) Ambit profiling from Eurofins (formerly Discoverx) was conducted in accordance with the manufacturer's instructions.

various enzymes [2] = biological target: T1, various enzymes (Homo sapiens, UniProt Q8IVH8); conditions: MAP4K3; 1 uM
T1 sequence (Q8IVH8 1-894): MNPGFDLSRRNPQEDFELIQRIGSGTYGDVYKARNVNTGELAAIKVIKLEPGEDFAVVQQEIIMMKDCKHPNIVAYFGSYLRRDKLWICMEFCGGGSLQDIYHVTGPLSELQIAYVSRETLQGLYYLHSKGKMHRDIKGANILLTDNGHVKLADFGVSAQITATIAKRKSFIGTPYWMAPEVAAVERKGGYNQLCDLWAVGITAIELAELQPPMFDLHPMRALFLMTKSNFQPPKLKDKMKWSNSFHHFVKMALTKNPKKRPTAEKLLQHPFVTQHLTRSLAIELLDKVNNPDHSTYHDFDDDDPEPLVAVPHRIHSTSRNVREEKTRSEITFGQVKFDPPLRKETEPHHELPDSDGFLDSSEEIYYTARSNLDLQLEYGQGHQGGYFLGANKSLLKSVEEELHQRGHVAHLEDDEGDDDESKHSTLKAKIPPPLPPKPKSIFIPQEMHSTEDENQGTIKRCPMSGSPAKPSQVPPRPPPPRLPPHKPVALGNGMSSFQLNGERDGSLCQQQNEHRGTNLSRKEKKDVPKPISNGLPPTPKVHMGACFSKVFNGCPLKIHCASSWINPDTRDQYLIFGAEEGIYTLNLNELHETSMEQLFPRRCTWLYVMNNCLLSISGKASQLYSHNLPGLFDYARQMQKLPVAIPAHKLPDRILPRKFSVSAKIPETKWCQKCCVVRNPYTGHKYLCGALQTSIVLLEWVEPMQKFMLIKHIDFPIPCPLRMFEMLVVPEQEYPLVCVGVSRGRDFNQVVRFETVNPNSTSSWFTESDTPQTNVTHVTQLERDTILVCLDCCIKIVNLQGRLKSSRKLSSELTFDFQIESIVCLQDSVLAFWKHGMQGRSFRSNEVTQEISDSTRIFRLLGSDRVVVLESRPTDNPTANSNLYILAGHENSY
Procedure: as §1

various enzymes [3] = biological target: various enzymes (Homo sapiens, UniProt Q9NYY3); conditions: PLK2; 1 uM
Procedure: as §1

various enzymes [4] = biological target: various enzymes (Homo sapiens, UniProt P00533, T790M)
Procedure: as §1

various enzymes [5] = biological target: various enzymes (Homo sapiens, UniProt Q9UK32); conditions: 1 uM
Procedure: as §1

various enzymes [6] = biological target: various enzymes (Homo sapiens, UniProt Q14004); conditions: CDC2L5; 1 uM
Procedure: as §1

various enzymes [7] = biological target: T2, various enzymes (Homo sapiens, UniProt Q99640); conditions: PKMYT1; 1 uM
T2 sequence (Q99640 1-499): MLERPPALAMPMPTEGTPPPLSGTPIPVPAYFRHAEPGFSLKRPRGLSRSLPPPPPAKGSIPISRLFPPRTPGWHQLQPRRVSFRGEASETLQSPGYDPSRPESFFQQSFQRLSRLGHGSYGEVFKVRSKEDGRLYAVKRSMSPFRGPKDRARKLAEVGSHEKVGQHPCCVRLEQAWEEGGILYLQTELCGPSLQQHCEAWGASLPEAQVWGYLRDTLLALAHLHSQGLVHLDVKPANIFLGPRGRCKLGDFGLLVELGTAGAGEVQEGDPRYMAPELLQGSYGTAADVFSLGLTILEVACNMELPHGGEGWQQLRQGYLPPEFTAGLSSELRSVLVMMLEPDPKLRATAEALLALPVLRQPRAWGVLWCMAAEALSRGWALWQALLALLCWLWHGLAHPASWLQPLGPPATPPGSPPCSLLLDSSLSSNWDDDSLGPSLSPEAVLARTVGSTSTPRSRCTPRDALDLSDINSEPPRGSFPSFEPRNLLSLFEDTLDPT
Procedure: as §1

various enzymes [8] = biological target: various enzymes (Homo sapiens, UniProt P53779); conditions: JNK3; 1 uM
Procedure: as §1

various enzymes [9] = biological target: various enzymes (Homo sapiens, UniProt Q00526); conditions: CDK3; 1 uM
Procedure: as §1

various enzymes [10] = biological target: T3, various enzymes (Homo sapiens, UniProt P36888); format: binding; design: other: FLT3(ITD); 1 uM; other: compound 1 uM; conditions: compound 1 uM
T3 sequence (P36888 1-993): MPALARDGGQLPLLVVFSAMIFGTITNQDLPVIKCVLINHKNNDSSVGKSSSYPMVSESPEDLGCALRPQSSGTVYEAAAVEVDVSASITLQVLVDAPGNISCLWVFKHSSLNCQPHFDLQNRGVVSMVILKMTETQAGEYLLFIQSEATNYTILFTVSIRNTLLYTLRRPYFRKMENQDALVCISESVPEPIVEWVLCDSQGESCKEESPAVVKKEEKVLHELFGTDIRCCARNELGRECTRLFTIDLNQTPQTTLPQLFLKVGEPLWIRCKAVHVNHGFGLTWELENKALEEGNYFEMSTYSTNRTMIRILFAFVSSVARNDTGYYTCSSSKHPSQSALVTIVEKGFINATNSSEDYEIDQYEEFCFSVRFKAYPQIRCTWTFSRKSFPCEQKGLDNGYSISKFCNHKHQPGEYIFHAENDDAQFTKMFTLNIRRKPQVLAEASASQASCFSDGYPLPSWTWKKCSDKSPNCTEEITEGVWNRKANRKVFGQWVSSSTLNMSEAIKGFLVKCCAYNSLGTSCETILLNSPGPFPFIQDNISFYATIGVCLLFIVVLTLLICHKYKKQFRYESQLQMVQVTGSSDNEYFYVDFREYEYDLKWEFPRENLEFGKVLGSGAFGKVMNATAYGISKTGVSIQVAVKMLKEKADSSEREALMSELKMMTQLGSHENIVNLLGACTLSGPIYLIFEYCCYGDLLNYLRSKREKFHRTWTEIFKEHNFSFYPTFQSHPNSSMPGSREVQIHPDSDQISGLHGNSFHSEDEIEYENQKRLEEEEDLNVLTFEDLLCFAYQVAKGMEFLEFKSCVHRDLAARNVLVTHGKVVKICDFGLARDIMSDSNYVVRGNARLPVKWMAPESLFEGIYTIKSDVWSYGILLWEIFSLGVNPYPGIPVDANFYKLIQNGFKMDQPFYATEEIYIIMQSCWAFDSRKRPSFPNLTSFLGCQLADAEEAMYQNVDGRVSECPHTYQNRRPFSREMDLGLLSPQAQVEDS
Procedure: Ambit profiling was conducted in accordance with the manufacturer's instructions.

various enzymes (Homo sapiens, UniProt Q9UK32), sequence (Q9UK32 whole entry): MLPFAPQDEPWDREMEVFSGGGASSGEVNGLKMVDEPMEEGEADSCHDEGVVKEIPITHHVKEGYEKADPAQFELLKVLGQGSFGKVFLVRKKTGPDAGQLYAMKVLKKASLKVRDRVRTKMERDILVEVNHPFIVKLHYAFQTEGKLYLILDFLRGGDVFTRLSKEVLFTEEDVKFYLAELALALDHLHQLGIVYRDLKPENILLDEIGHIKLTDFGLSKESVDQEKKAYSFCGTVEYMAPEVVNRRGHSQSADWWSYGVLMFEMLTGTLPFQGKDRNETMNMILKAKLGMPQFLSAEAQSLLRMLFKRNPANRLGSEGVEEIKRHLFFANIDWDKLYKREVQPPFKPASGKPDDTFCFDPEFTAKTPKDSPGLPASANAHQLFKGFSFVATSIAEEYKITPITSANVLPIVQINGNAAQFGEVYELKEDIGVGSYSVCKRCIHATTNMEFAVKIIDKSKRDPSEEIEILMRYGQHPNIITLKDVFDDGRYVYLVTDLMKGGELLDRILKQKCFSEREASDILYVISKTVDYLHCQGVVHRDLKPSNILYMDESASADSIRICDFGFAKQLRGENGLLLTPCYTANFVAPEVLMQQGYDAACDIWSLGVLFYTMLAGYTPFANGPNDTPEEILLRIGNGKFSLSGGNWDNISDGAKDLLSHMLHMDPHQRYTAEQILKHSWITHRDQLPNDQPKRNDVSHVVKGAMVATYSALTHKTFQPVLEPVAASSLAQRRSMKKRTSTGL
various enzymes (Homo sapiens, UniProt Q14004), sequence (Q14004 whole entry): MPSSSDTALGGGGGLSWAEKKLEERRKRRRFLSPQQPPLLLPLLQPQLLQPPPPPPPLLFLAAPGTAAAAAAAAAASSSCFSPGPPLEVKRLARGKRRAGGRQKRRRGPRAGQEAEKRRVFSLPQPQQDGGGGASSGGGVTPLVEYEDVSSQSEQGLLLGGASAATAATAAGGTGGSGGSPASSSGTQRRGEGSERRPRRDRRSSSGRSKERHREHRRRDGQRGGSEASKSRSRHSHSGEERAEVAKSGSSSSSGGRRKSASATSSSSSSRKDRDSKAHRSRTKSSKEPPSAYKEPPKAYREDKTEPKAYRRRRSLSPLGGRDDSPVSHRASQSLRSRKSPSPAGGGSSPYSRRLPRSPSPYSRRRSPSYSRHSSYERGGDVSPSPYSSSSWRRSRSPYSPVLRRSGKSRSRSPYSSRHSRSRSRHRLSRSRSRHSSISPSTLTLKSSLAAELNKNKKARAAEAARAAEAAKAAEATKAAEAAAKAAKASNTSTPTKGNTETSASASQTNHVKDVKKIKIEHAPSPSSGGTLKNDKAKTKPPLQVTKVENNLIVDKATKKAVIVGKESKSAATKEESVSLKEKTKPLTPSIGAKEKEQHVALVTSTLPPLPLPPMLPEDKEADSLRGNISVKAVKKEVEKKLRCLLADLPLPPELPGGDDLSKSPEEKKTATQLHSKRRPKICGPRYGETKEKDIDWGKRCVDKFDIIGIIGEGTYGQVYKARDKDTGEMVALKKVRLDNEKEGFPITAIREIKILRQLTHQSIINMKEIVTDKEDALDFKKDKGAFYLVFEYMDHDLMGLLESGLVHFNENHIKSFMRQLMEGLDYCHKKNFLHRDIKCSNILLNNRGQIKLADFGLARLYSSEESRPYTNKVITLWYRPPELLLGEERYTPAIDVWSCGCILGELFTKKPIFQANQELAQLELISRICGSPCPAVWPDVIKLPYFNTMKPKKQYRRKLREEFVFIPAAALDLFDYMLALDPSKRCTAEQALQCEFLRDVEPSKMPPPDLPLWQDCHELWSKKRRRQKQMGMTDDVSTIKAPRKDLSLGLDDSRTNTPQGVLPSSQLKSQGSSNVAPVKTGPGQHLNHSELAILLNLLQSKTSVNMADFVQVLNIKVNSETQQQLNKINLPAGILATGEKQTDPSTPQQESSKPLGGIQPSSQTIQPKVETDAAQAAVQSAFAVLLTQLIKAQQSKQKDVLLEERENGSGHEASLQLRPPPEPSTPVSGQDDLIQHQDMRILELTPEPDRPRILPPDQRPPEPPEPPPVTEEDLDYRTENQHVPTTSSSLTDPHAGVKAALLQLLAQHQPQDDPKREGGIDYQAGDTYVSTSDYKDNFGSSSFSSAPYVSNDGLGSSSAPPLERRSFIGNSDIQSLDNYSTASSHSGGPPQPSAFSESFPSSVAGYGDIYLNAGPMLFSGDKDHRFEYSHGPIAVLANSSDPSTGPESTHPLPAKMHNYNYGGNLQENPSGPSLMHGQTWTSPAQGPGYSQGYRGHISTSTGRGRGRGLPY
various enzymes (Homo sapiens, UniProt Q00526), sequence (Q00526 whole entry): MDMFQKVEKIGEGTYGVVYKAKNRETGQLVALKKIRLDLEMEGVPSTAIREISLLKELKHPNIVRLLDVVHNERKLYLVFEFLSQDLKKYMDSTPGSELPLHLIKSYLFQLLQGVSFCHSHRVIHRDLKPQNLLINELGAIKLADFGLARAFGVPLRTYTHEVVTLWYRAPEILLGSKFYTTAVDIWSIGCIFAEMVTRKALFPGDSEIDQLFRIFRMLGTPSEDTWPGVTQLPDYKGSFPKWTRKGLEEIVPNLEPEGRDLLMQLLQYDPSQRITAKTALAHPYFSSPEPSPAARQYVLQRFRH
various enzymes (Homo sapiens, UniProt P53779), sequence (P53779 whole entry): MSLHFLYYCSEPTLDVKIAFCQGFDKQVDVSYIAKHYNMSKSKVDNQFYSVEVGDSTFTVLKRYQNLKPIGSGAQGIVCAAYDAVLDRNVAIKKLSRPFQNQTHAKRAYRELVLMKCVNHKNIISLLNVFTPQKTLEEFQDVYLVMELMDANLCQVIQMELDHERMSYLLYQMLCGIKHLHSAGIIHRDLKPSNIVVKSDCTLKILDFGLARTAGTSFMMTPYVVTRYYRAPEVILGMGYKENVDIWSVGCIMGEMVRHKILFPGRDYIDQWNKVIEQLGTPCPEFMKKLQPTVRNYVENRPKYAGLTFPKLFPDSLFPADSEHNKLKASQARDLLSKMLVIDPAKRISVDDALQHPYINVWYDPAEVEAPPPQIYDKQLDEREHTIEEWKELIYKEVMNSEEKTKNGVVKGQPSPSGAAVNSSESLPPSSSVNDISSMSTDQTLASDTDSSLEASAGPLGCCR
various enzymes (Homo sapiens, UniProt Q9NYY3), sequence (Q9NYY3 whole entry): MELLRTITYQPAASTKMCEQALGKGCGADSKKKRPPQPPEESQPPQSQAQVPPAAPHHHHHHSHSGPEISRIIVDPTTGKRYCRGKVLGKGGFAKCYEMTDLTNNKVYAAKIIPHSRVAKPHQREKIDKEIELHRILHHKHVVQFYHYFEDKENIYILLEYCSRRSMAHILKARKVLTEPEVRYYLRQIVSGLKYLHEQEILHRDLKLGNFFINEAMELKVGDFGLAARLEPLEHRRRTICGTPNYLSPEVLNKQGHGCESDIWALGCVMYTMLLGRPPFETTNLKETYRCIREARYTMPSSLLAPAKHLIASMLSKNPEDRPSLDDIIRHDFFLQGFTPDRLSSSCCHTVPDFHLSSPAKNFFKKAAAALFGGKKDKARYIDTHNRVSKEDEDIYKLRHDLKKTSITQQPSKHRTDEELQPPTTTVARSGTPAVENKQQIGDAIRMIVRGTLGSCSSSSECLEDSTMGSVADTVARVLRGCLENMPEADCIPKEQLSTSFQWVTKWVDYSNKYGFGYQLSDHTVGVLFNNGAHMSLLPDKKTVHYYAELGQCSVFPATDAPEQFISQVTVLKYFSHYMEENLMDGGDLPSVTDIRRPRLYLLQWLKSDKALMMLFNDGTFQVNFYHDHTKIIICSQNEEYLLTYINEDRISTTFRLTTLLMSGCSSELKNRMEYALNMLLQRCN

Structure (SMILES): CN1Cc2nn(C)cc2-c2cnc3[nH]cc(c3c2)-c2cnn(c2)CCCC1=O [Compound 41, (Z)-31,5-dimethyl-11H,21H,31H-5-aza-2(3,5)-pyrrolo[2,3-b]pyridina-1(4,1),3(4,3)-dipyrazolacyclononaphan-6-one]
- Ambit profiling (various enzymes [1]; MET(M1250T), 1 uM): 20
- Ambit profiling (various enzymes [2]): 7.8
- Ambit profiling (various enzymes [3]): 90
- Ambit profiling (various enzymes [4]; EGFR(T790M), 1 uM): 41
- Ambit profiling (various enzymes [5]; RSK4(Kin.Dom.1-N-terminal)): 5.6
- Ambit profiling (various enzymes [5]; RSK4(Kin.Dom.2-C-terminal)): 63
- Ambit profiling (various enzymes [6]): 100
- Ambit profiling (various enzymes [7]): 64
- Ambit profiling (various enzymes [8]): 0.75
- Ambit profiling (various enzymes [9]): 50

Structure (SMILES): CC(C)N1Cc2nn(C)cc2-c2cnc3[nH]cc(c3c2)-c2cn(nc2C(F)(F)F)CCCC1=O [Compound 45, (Z)-5-isopropyl-31-methyl-13-(trifluoromethyl)-11H,21H,31H-5-aza-2(3,5)-pyrrolo[2,3-b]pyridina-1(4,1),3(4,3)-dipyrazolacyclononaphan-6-one]
- Ambit profiling: FLT3(ITD) (various enzymes [10]): 0.3

Structure (SMILES): CN1Cc2nn(C)c(C#N)c2-c2cnc3[nH]cc(c3c2)-c2cn(nc2C(F)(F)F)CCCC1=O [Compound 48, (Z)-31,5-dimethyl-6-oxo-13-(trifluoromethyl)-11H,21H,31H-5-aza-2(3,5)-pyrrolo[2,3-b]pyridina-1(4,1),3(4,3)-dipyrazolacyclononaphane-35-carbonitrile]
- Ambit profiling (various enzymes [1]): 75
- Ambit profiling (various enzymes [2]): 77
- Ambit profiling (various enzymes [3]): 100
- Ambit profiling (various enzymes [4]): 80
- Ambit profiling (various enzymes [5]; RSK4(Kin.Dom.1-N-terminal)): 7.5
- Ambit profiling (various enzymes [5]; RSK4(Kin.Dom.2-C-terminal)): 69
- Ambit profiling (various enzymes [6]): 87
- Ambit profiling (various enzymes [7]): 77
- Ambit profiling (various enzymes [8]): 14
- Ambit profiling (various enzymes [9]): 100

Structure (SMILES): COc1c2c(nn1C)CN(C(C)C)C(=O)CCCn1cc(c(C(F)(F)F)n1)-c1c[nH]c3ncc-2cc13 [Compound 50, (Z)-5-isopropyl-35-methoxy-31-methyl-13-(trifluoromethyl)-11H,21H,31H-5-aza-2(3,5)-pyrrolo[2,3-b]pyridina-1(4,1),3(4,3)-dipyrazolacyclononaphan-6-one]
- Ambit profiling: FLT3(ITD) (various enzymes [10]): 0.35
